Values of other authors in PMC8089043 (Journal of controlled release : official journal of the …, 2021).

How the values were obtained:
[1] = rats, high doses
[2] = in vivo

SMILES	dose exhibiting hepatic and renal toxicities [1] [mg/kg]	safety of diets containing gram quantities [2]
CC(C)=CCC[C@]1(C)C=Cc2c(O)c3c(c(CC=C(C)C)c2O1)O[C@]12C(=C[C@@H]4C[C@H]1C(C)(C)O[C@@]2(C/C=C(/C)C(=O)O)C4=O)C3=O [GA, gambogic acid]	> 120	–
O=c1oc2cc(O)ccc2c2ccc(O)cc12 [UA, urolithin A]	–	safe
